For 20 molecules, IC50 results are on record in US10227342B2 (ARIAD PHARMACEUTICALS, INC., priority 2014, dated 2019).

Structures are written as SMILES. Where only a bound is given, the exact number is not on record here.

Format in all cases: cell-based
Experiment [1] concerns the target human EGFR exon 20 insertion NPG (H773_V774insNPG) (Homo sapiens, UniProt P00533, INS773NPG, cells depend on it). Put plainly: Ba/F3-EGFR-Exon20-NPG cell anti-proliferative assay (CellTiter 96 MTS, 72 h). The following applies: read-out: EGFR exon 20 NPG insertion IC50.
Experiment [2] addresses human EGFR exon 20 insertion ASV (V769_D770insASV) (Homo sapiens (Human), UniProt P00533, INS769ASV). Put plainly: Ba/F3-EGFR-Exon20-ASV cell anti-proliferative assay (CellTiter 96 MTS, 72 h).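 Further: Ba/F3 cells bearing the EGFR exon 20 ASV insertion, a line able to proliferate without IL-3.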 The following applies: Ba/F3-EGFR-Exon20-ASV cells.
Experimental: Ba/F3 cells expressing EGFR exon 20 insertions (named Ba/F3-EGFR-Exon20-NPG or Ba/F3-EGFR-Exon20-ASV) can proliferate in the absence of IL-3. The anti-proliferative activity of compounds were determined as follows: BaF3-EGFR-Exon20 cells (NPG or ASV) seeded in 96 well plates (2500 cells/well) were treated with test compound (dissolved in DMSO) at a series of concentrations (4-fold dilution, top concentration: 10,000 nM). The plates were incubated for 72 h in a 37° C. incubator with 5% CO2, and the number of viable cells in each well were measured indirectly by CellTiter 96® Aqueous One Solution Cell Proliferation Assay (Promega) This assay is a colorimetric method for determining the number of viable cells through measurement of their metabolic activity by detection of enzymatic conversion of tetrazolium salts into blue formazan derivatives. Reagent (20 μL) was added into each well, and the plates were returned to the incubator for 2 h. The absorbance in each well was then measured at 490 nm using an Envision plate reader (Perkin Elmer).
Experiment [3] concerns the target human EGFR E746-A750 deletion and T790M Mutation (DT) (Homo sapiens (Human), UniProt P00533, DEL746-750/T790M). In words: Ba/F3-EGFR-Del/T790M cell anti-proliferative assay (CellTiter 96 MTS, 72 h). Particulars: Ba/F3-EGFR-Del/T790M cells; read-out: EGFR exon 19 deletion and T790M mutation IC50.
The target in experiment [4] is Her2 exon 20 YVMA insertion (A775_G776ins YVMA) (Homo sapiens (Human), UniProt P04626, INS775YVMA). Put plainly: Ba/F3-Her2 Exon20 YVMA cell anti-proliferative assay (CellTiter 96 MTS, 72 h). The following applies: Ba/F3-Her2 Exon20 YVMA cells. The text has this:
Ba/F3 cells expressing Her2 Exon20 YVMA insertions (named Ba/F3-Her2 Exon20 YVMA) can proliferate in the absence of IL-3.

Chain of Her2 exon 20 YVMA insertion (A775_G776ins YVMA) (P04626 other isoform, or with tags, fused parts or gaps ins YVMA behind 775): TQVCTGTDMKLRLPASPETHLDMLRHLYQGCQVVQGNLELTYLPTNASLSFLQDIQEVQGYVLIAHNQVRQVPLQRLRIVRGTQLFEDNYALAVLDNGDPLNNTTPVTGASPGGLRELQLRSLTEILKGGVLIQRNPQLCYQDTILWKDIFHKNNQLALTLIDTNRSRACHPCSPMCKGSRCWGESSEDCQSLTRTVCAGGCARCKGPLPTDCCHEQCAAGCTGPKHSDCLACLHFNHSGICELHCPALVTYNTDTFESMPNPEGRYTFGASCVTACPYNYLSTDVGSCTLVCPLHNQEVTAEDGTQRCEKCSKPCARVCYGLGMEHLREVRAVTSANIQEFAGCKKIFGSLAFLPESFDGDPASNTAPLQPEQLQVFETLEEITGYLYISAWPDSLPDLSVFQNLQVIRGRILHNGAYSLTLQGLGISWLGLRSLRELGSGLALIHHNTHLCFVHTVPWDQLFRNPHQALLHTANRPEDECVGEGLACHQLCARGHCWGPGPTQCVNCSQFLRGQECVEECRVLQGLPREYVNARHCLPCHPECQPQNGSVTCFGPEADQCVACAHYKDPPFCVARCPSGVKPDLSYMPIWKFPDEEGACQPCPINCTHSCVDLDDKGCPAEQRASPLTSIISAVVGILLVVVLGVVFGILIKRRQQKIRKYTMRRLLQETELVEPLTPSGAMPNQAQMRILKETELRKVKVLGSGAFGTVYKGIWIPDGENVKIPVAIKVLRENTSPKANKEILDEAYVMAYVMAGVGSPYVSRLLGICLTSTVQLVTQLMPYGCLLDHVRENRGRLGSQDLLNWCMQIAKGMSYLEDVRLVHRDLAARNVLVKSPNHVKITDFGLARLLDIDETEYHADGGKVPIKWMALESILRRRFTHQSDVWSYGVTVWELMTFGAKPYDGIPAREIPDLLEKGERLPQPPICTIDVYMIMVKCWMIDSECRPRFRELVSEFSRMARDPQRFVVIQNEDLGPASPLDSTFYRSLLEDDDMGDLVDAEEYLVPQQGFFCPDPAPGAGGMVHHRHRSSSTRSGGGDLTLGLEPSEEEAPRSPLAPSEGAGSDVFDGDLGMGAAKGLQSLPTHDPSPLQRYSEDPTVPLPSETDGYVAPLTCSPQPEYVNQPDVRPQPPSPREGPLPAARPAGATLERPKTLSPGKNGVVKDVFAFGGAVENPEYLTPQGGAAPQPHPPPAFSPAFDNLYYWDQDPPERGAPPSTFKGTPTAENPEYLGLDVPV
Chain of human EGFR exon 20 insertion ASV (V769_D770insASV) (P00533 other isoform, or with tags, fused parts or gaps ins ASV behind 769): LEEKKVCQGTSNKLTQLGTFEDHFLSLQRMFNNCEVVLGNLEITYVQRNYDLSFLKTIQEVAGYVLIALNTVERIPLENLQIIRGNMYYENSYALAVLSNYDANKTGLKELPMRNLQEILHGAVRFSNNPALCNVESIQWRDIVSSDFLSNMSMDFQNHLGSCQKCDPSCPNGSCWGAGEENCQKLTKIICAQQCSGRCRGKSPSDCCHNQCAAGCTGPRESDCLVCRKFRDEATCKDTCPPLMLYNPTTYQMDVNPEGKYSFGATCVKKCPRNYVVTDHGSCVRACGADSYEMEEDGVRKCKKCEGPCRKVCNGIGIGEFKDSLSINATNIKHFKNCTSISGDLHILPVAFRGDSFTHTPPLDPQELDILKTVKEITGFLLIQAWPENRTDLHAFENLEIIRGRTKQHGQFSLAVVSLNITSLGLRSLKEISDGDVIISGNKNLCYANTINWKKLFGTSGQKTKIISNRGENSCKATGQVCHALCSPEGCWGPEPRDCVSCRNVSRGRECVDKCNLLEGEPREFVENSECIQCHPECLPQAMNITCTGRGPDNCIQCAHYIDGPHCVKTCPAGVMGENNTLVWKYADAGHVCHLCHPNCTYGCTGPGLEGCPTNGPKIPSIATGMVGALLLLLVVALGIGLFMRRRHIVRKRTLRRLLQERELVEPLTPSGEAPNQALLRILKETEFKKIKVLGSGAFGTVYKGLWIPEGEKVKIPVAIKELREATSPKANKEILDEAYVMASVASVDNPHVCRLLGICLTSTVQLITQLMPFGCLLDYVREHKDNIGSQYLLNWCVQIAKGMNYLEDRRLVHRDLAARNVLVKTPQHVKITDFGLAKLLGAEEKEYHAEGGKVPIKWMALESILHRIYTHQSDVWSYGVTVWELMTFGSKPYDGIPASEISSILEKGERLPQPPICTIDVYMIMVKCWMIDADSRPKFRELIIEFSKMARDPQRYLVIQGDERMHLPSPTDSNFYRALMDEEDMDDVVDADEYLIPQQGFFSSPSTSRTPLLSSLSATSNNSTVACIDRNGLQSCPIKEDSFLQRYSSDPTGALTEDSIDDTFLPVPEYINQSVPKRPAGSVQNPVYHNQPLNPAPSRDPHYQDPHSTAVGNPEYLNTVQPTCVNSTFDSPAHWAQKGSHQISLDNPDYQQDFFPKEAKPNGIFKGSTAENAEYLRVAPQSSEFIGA
Chain of human EGFR exon 20 insertion NPG (H773_V774insNPG) (P00533 with tags, fused parts or gaps INS773NPG limits assumed): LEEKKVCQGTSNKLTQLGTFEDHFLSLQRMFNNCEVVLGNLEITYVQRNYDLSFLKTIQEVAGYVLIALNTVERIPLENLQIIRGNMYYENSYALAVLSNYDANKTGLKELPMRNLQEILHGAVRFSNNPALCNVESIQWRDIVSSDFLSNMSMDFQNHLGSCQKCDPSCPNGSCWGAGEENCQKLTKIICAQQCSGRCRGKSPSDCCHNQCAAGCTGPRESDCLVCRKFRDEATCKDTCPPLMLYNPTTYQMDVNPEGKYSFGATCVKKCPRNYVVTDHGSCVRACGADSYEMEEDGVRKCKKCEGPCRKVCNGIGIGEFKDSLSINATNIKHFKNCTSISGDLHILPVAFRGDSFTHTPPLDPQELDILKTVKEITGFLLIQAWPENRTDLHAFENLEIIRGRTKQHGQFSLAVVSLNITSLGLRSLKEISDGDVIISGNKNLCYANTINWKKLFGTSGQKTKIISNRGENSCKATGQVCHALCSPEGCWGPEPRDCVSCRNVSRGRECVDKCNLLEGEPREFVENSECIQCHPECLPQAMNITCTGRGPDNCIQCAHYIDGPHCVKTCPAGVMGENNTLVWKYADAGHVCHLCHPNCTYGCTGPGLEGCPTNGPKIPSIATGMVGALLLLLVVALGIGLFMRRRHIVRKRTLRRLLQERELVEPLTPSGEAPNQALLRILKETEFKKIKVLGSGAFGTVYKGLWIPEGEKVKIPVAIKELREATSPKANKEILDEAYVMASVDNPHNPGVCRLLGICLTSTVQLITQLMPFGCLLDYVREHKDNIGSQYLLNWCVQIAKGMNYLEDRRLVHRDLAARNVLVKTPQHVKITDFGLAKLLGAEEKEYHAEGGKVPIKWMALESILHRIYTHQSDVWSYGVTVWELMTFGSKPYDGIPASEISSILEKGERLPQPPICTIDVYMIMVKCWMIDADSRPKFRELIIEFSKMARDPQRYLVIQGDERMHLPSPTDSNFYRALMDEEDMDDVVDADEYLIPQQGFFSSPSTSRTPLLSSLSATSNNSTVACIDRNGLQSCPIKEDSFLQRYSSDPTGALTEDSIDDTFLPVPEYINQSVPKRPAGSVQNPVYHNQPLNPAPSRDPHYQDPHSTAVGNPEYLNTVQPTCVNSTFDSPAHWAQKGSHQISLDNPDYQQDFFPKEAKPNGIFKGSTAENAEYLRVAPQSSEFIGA
Chain of human EGFR E746-A750 deletion and T790M Mutation (DT) (P00533 other isoform, or with tags, fused parts or gaps T790M/del E746-A750): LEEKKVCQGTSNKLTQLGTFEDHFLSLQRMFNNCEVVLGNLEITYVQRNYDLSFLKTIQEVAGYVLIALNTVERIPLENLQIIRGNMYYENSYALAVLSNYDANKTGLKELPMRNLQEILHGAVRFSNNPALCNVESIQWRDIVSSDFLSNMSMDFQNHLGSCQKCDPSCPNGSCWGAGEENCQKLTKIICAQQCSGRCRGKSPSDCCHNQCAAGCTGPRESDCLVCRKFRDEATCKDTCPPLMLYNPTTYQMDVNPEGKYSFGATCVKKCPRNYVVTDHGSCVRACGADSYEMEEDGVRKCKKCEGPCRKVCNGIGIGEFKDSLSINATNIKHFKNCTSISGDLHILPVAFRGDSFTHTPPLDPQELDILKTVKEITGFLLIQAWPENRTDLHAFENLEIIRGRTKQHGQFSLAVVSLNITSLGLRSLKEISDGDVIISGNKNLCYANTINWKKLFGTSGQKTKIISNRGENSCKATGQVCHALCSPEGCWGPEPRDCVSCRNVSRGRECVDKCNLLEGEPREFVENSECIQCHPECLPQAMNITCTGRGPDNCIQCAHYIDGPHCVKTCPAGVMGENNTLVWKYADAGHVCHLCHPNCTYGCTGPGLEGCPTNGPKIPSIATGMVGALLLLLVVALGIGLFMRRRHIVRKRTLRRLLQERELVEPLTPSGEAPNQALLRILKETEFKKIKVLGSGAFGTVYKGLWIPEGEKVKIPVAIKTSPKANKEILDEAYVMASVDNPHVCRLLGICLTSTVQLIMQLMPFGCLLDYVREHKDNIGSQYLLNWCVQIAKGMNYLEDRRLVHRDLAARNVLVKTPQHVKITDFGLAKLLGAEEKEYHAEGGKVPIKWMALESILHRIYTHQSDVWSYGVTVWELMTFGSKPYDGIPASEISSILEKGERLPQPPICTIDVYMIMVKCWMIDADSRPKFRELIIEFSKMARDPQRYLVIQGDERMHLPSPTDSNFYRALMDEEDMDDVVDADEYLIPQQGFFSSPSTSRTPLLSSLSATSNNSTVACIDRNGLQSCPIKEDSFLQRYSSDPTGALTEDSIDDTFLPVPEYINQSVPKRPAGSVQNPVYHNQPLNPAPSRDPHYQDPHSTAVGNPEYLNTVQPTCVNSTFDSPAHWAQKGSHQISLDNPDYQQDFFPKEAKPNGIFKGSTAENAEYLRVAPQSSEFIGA

Usually IC50 stands for the midpoint of a concentration-inhibition curve. As for `C=CC(=O)Nc1cc(Nc2ncc(C(=O)OC(C)C)c(-c3cn(C)c4c(OC)cccc34)n2)c(OC)cc1N(C)CCN(C)C` [Example 31, isopropyl 2-((5-acrylamido-4-((2-(dimethylamino)ethyl)(methyl)amino)-2-methoxyphenyl)amino)-4-(7-methoxy-1-methyl-1H-indol-3-yl)pyrimidine-5-carboxylate], the IC50 in experiment [1], in experiment [2], in experiment [3] and in experiment [4] was less than 100 nM in each case.
As to `C=CC(=O)Nc1cc(Nc2ncc(C(=O)OCC3CC3)c(-c3cn(C)c4ccccc34)n2)c(OC)cc1N(C)CCN(C)C` [Example 13, cyclopropylmethyl 2-((5-acrylamido-4-((2-(dimethylamino)ethyl)(methyl)amino)-2-methoxyphenyl)amino)-4-(1-methyl-1H-indol-3-yl)pyrimidine-5-carboxylate], the half-inhibitory concentration (IC50) in experiment [1], in experiment [2], in experiment [3] and in experiment [4] was less than 100 nM in each case.
For the molecule `C=CC(=O)Nc1cc(Nc2ncc(C(=O)OC3CCC3)c(-c3cn(C)c4ccccc34)n2)c(OC)cc1N(C)CCN(C)C` [Example 14, cyclobutyl 2-((5-acrylamido-4-((2-(dimethylamino)ethyl)(methyl)amino)-2-methoxyphenyl)amino)-4-(1-methyl-1H-indol-3-yl)pyrimidine-5-carboxylate], the half-maximal inhibitory concentration (IC50) in experiment [1], in experiment [2], in experiment [3] and in experiment [4] was less than 100 nM each time.
As to `C=CC(=O)Nc1cc(Nc2ncc(NC(=O)C(C)(C)C)c(-c3cn(C)c4ccccc34)n2)c(OC)cc1N(C)CCN(C)C` [Example 41, N-(2-((2-(dimethylamino)ethyl)-(methyl)amino)-4-methoxy-5-((4-(1-methyl-1H-indol-3-yl)-5-pivalamidopyrimidin-2-yl)amino)phenyl)acrylamide], the IC50 in experiment [1] was 100 to 500 nM; in experiment [2] it was 500 to 1000 nM; in experiment [3], greater than 1000 nM; in experiment [4] it was greater than 1000 nM.
As for `C=CC(=O)Nc1ccc(OC)c(Nc2ncc(Cl)c(-c3c[nH]c4cc(OCCN5CCCC5)ccc34)n2)c1` [Example 22, N-(3-((5-chloro-4-(6-(2-(pyrrolidin-1-yl)ethoxy)-1H-indol-3-yl)pyrimidin-2-yl)amino)-4-methoxyphenyl)acrylamide], the half-maximal inhibitory concentration (IC50) in experiment [1] is less than 100 nM; in experiment [2], 100 to 500 nM; in experiment [3] it was less than 100 nM; in experiment [4], 100 to 500 nM.
As to `C=CC(=O)Nc1cc(Nc2ncc(C(=O)OCC#N)c(-c3cn(C)c4ccccc34)n2)c(OC)cc1N(C)CCN(C)C` [Example 38, cyanomethyl 2-((5-acrylamido-4-((2-(dimethylamino)ethyl)(methyl)amino)-2-methoxyphenyl)amino)-4-(1-methyl-1H-indol-3-yl)pyrimidine-5-carboxylate], the IC50 in experiment [1], in experiment [2], in experiment [3] and in experiment [4] was less than 100 nM in each case.
Consider `C=CC(=O)Nc1ccc(OC)c(Nc2ncc(C#N)c(-c3cn(C)c4cc(OCCCN(C)C)ccc34)n2)c1` [Example 19, N-(3-((5-cyano-4-(6-(3-(dimethylamino)propoxy)-1-methyl-1H-indol-3-yl)pyrimidin-2-yl)amino)-4-methoxyphenyl)acrylamide], for which the concentration for half-maximal inhibition (IC50) was less than 100 nM in experiment [1], 100 to 500 nM in experiment [2], less than 100 nM in experiment [3] and 500 to 1000 nM in experiment [4].
Turning to `C=CC(=O)Nc1cc(Nc2ncc(Cl)c(-c3cnn4ccccc34)n2)c(OC)cc1N(C)CCN(C)CCF` [Example 33, N-(5-((5-chloro-4-(pyrazolo[1,5-a]pyridin-3-yl)pyrimidin-2-yl)amino)-2-((2-((2-fluoroethyl)(methyl)amino)ethyl)(methyl)amino)-4-methoxyphenyl)acrylamide], the IC50 was 100 to 500 nM in experiment [1], less than 100 nM in experiment [3] and 500 to 1000 nM in experiment [4].
For `C=CC(=O)Nc1cc(Nc2ncc(Cl)c(-c3cnn4ccccc34)n2)c(OC)cc1N(C)CCN1CCOCC1` [Example 54, N-(5-((5-chloro-4-(pyrazolo[1,5-a]pyridin-3-yl)pyrimidin-2-yl)amino)-4-methoxy-2-(methyl(2-morpholinoethyl)amino)phenyl)-acrylamide], the values for the IC50 in experiment [1], in experiment [3] and in experiment [4] were 500 to 1000 nM, less than 100 nM and greater than 1000 nM, respectively.
The matching figures for `C=CC(=O)Nc1cc(Nc2ncc(Cl)c(-c3cnn4ccccc34)n2)c(OC)cc1N(C)CCN1CCN(C)CC1` [Example 27, N-(5-((5-chloro-4-(pyrazolo[1,5-a]pyridin-3-yl)pyrimidin-2-yl)amino)-4-methoxy-2-(methyl(2-(4-methylpiperazin-1-yl)ethyl)amino)phenyl)acrylamide]: 500 to 1000 nM, less than 100 nM and greater than 1000 nM.
The matching figures for `C=CC(=O)Nc1cc(Nc2ncc(Cl)c(-c3cnn4ccccc34)n2)c(OC)cc1N(C)CCN(CC)CC` [Example 53, N-(5-((5-chloro-4-(pyrazolo[1,5-a]pyridin-3-yl)pyrimidin-2-yl)amino)-2-((2-(diethylamino)ethyl)-(methyl)amino)-4-methoxyphenyl)acrylamide]: 100 to 500 nM, less than 100 nM and 500 to 1000 nM.
For `C=CC(=O)Nc1cc(Nc2ncc(Cl)c(-c3cnn4ccccc34)n2)c(OC)cc1OC(COC)CN(CC)CC` (stereo not shown) [Example 47, N-(5-((5-chloro-4-(pyrazolo[1,5-a]pyridin-3-yl)pyrimidin-2-yl)amino)-2-((1-(diethylamino)-3-methoxypropan-2-yl)oxy)-4-methoxyphenyl) acrylamide] the same measures were 100 to 500 nM, less than 100 nM and 500 to 1000 nM.
With `C=CC(=O)Nc1cc(Nc2ncc(Cl)c(-c3cnn4ccccc34)n2)c(OC)cc1OCCN1CCCC1` [Example 49, N-(5-((5-chloro-4-(pyrazolo[1,5-a]pyridin-3-yl)pyrimidin-2-yl)amino)-4-methoxy-2-(2-(pyrrolidin-1-yl)ethoxy)phenyl)acrylamide], the IC50 is 100 to 500 nM in experiment [1], less than 100 nM in experiment [3] and 500 to 1000 nM in experiment [4].
The matching figures for `C=CC(=O)Nc1cc(Nc2ncc(Cl)c(-c3cn(C)c4ccccc34)n2)c(OC)cc1C#CCN(C)C` [Example 45, N-(5-((5-chloro-4-(1-methyl-1H-indol-3-yl)pyrimidin-2-yl)amino)-2-(3-(dimethylamino)prop-1-yn-1-yl)-4-methoxyphenyl)acrylamide]: 100 to 500 nM, less than 100 nM and 500 to 1000 nM.
With `C=CC(=O)Nc1cc(Nc2nccc(-c3cn(C)c4ccccc34)n2)c(OC)cc1N(C)CCNC` [Example 57, N-(4-methoxy-2-(methyl(2-(methylamino)ethyl)amino)-5-((4-(1-methyl-1H-indol-3-yl)pyrimidin-2-yl)amino)phenyl)acrylamide], the 50% inhibitory concentration (IC50) in experiment [1] was less than 100 nM; in experiment [2], 100 to 500 nM; in experiment [4], 100 to 500 nM.
Regarding `C=CC(=O)Nc1cc(Nc2ncc(Cl)c(-c3cnn4ccccc34)n2)c(OC)cc1OCCN1CCOCC1` [Example 50, N-(5-((5-chloro-4-(pyrazolo[1,5-a]pyridin-3-yl)pyrimidin-2-yl)amino)-4-methoxy-2-(2-morpholinoethoxy)phenyl)acrylamide], the IC50 in experiment [1] is greater than 1000 nM; in experiment [3], less than 100 nM; in experiment [4], greater than 1000 nM.
`C=CC(=O)Nc1cc(Nc2ncc(CC)c(-c3cnn4ccccc34)n2)c(OC)cc1N(C)CCN(C)C` [Example 1, N-(2-((2-(dimethylamino)ethyl)(methyl)amino)-5-((5-ethyl-4-(pyrazolo[1,5-a]pyridin-3-yl)pyrimidin-2-yl)amino)-4-methoxyphenyl)acrylamide]: the IC50 in experiment [1] is less than 100 nM; in experiment [3], less than 100 nM; in experiment [4], 100 to 500 nM.
With `C=CC(=O)Nc1cc(Nc2ncc(Cl)c(-c3cn(C)c4ccccc34)n2)c(OC)cc1C#CC(C)(C)N(C)C` [Example 46, N-(5-((5-chloro-4-(1-methyl-1H-indol-3-yl)pyrimidin-2-yl)amino)-2-(3-(dimethylamino)-3-methylbut-1-yn-1-yl)-4-methoxyphenyl)acrylamide], the values for the IC50 in experiment [1], in experiment [3] and in experiment [4] were 100 to 500 nM, less than 100 nM and 500 to 1000 nM, respectively.
In the case of `C=CC(=O)Nc1cc(Nc2ncc(Cl)c(-c3cn(C)c4ccccc34)n2)c(OC)cc1O[C@@H](COCC)CN(C)C` [Example 44, (R)-N-(5-((5-chloro-4-(1-methyl-1H-indol-3-yl)pyrimidin-2-yl)amino)-2-((1-(dimethylamino)-3-ethoxypropan-2-yl)oxy)-4-methoxyphenyl)acrylamide], the results for the half-maximal inhibitory concentration (IC50) in experiment [1], in experiment [3] and in experiment [4] were 100 to 500 nM, less than 100 nM and 500 to 1000 nM, respectively.
The matching figures for `C=CC(=O)Nc1cc(Nc2ncc(Cl)c(-c3cn(C)c4c5c(ccc34)CCC5)n2)c(OC)cc1N(C)CCN(C)C` [Example 43, N-(5-((5-chloro-4-(1-methyl-1,6,7,8-tetrahydrocyclopenta[g]indol-3-yl)pyrimidin-2-yl)amino)-2-((2-(dimethylamino)ethyl)(methyl)amino)-4-methoxyphenyl)acrylamide]: less than 100 nM, less than 100 nM and 100 to 500 nM.
